Experimental data: US20240245711A1, “A 19-NOR C3,3-DISUBSTITUTED C21-N-PYRAZOLYL STEROID FOR THE TREATMENT OF MAJOR DEPRESSIVE DISORDER” (Sage Therapeutics, Inc., priority 2021, published 2024)

System: patients with MDD and metabolic comorbidities
Experiment: Post hoc analysis of the Example 1 study: patients with MDD and metabolic comorbidities
Assay type: in vivo, human
Experimental: Patients with MDD who have metabolic comorbidities face additional adverse events associated with antidepressants (e.g., weight gain, metabolic abnormalities) and often respond poorly. This example presents results from a post hoc analysis of clinical study of Example 1 in patients with MDD and metabolic comorbidities.
The clinical study of Example 1 enrolled patients with MDD, aged 18-75 years, with HAMD-17 score ≥20 and a MADRS total score ≥28 to 1 of 2 cohorts: 30 mg Cohort and 50 mg Cohort. HAMD-17 responders (≥50% reduction from baseline) at Day 15 continued in study and were assessed for retreatment eligibility.
Patients with a metabolic comorbidity were identified by the following coded terms in patient history: obesity, hyperlipidemia, hypercholesterolemia, type-2 diabetes mellitus, type-1 diabetes mellitus, glucose tolerance impaired, hypertriglyceridemia, dyslipidemia, metabolic syndrome, and/or diabetic dyslipidemia.

[1] = Day 15 of first treatment cycle, metabolic comorbidities subpopulation
[2] = metabolic comorbidities subpopulation

In the case of `C[C@@]1(O)CC[C@H]2[C@H](CC[C@@H]3[C@@H]2CC[C@]2(C)[C@@H](C(=O)Cn4cc(C#N)cn4)CC[C@@H]32)C1` [Compound (1), 1-(2-((3R,5R,8R,9R,10S,13S,14S,17S)-3-hydroxy-3,13-dimethylhexadecahydro-1H-cyclopenta[a]phenanthren-17-yl)-2-oxoethyl)-1H-pyrazole-4-carbonitrile], the “Patients not requiring additional treatment courses during their time in the study” value (161/253 who responded to and completed the first treatment cycle) is reported as 55.9%, the HAMD-17 remission rate [1] is reported as 37.1% and the HAMD-17 response rate [1] is reported as 67.3%. For the same compound, the “Mean (SD) CFB in HAMD-17” value [1] was −14.8 (7.10), the TEAE diarrhea [2] was 6.7% and the TEAE dizziness [2] was 9.1%. For the same compound, the TEAE dry mouth [2] was 5.5%, the TEAE headache [2] was 14.2% and the TEAE sedation [2] was 5.1%. For the same compound, the TEAE somnolence [2] was 13.8%, the “TEAE upper respiratory infection” value [2] was 5.9% and the “TEAEs leading to discontinuation of study drug” value (metabolic comorbidities subpopulation (8/253)) was 3.2%. The “TEAEs leading to withdrawal from the study” value (metabolic comorbidities subpopulation (11/253)) was 4.3%, the “TEAEs leading to dose reduction” value (metabolic comorbidities subpopulation (19/253)) was 7.5% and the “Share of patients with TEAEs that were mild/moderate” value (metabolic comorbidities subpopulation (148/167)) was 88.6%. The “Patients with ≥1 TEAE over the study duration” value (metabolic comorbidities subpopulation (167/253)) was 66.0%, the “Mean (range) number of total treatment courses” value (metabolic comorbidities subpopulation, first-cycle responders) was 1.9 (1-5) and the Tolerability (patients with MDD and metabolic comorbidities) was “generally well tolerated”.
